Measured values taken from patent US11345701B1, “KRAS mutant protein inhibitors” (Jacobio Pharmaceuticals Co., Ltd., priority 2021, dated 2022).

Tests used:
[1] = target: HIS-KRAS(G12C) (Homo sapiens (Human), UniProt P01116, G12C); assay: SOS1 catalyzed nucleotide exchange assay (TR-FRET); assay type: biochemical; conditions: GDP-loaded HIS-KRAS(G12C), 1 hour pre-incubation, TR-FRET
Procedure: TR-FRET signals were then read on Tecan Spark multimode microplate reader. […] TR-FRET ratios for each individual wells were calculated by equation: TR-FRET ratio=(Signal F515/Signal F486)*10000. Then the data were analyzed using a 4-parameter logistic model to calculate IC50 values.

[2] = tested on: NCI-H358 cells expressing KRAS G12C mutant protein; assay: Phospho-ERK1/2(THR202/TYR204) HTRF assay; assay type: cell-based; conditions: Homo sapiens, NCI-H358, 2 h, 2 hours incubation, read-out: p-ERK IC50
Procedure: The NCI-H358 cells in culture medium were seeded in 96-well plates at a concentration of 40,000 cells/well and then put in a 37° C./5% CO2 cell incubator to incubate overnight. […] After 2 hours incubation in a 37° C./5% CO2 cell incubator, the assay medium in 96-well plates was removed, then 50 μL of 1× blocking reagent-supplemented lysis buffer (Cisbio) was added and the plates were incubated at 25° C. for 45 min with shaking. 10 μL of cell lysates from the 96-well plates were transferred to a 384-well plate (Greiner) containing 2.5 μL/well HTRF® pre-mixed antibodies (Cisbio 64AERPEH). Incubate 4 hours at 25° C. and then read HTRF signals on Tecan Spark multimode microplate reader. The data were analyzed using a 4-parameter logistic model to calculate IC50 values.

[3] = Mouse pharmacokinetic study; assay type: in vivo, Balb/c mouse
Procedure: The purpose of this study was to evaluate the pharmacokinetic properties of compounds in Balb/c mouse (♀) following single dose administration. The day before administration, mice were fasted overnight and free access to water. Six mice were needed for each compound and the six mice were divided into two groups (n=3/group), group A and group B. Mice in group A were treated with a single 3 mg/kg dose of compound (iv). Mice in group B were treated with a single 10 mg/kg dose of compound (po). For each mouse in group A, blood samples were collected at pre-dose, and at the time point of 0.083, 0.25, 0.5, 1, 2, 4, 6, 8 and 24 h post-dose. For each mouse in group B, blood samples were collected at pre-dose, and at the time point of 0.25, 0.5, 1, 2, 3, 4, 6, 8 and 24 h post-dose. Blood samples were placed on ice until centrifugation to obtain plasma samples. The plasma samples were stored at −80° C. until analysis. The concentration of compound in plasma samples was determined using a LC-MS/MS method.

Sequence of HIS-KRAS(G12C) (P01116 other isoform, or with tags, fused parts or gaps G12C): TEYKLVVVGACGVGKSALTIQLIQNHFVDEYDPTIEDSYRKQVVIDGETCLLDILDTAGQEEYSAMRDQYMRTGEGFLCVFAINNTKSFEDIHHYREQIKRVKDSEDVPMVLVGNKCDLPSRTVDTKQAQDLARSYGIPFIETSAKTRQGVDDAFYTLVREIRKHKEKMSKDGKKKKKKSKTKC

Structure (SMILES)	IC50 [1] [nM]	IC50 [2] [nM]	Pharmacokinetic properties in words ([3]; mouse model, 3 mg/kg iv and 10 mg/kg po)	clearance ([3]; plasma, Balb/c mouse (female), 3 mg/kg, iv) [mL/min/kg]	Vd ([3]; plasma, Balb/c mouse (female), 3 mg/kg, iv, read-out: Vss) [L/kg]	AUC(0-t) ([3]; plasma, Balb/c mouse (female), 10 mg/kg, po, read-out: AUC0-24 h) [ng·h/mL]	Cmax ([3]; plasma, Balb/c mouse (female), 10 mg/kg, po, read-out: Cmax) [ng/mL]	bioavailability ([3]; plasma, Balb/c mouse (female), 10 mg/kg, po, read-out: Oral BA (F %)) [%]
C=CC(=O)N1CCN(c2nc(=O)n(-c3c(C)ccnc3C(C)C)c3nc(-c4c(F)c(F)c(F)c(N)c4Cl)c(F)cc23)[C@@H](C)C1 [Compound 1, 4-((S)-4-acryloyl-2-methylpiperazin-1-yl)-7-(3-amino-2-chloro-4,5,6-trifluorophenyl)-6-fluoro-1-(2-isopropyl-4-methylpyridin-3-yl)pyrido[2,3-d]pyrimidin-2(1H)-one]	7.25	70.1	–	–	–	–	–	–
C=CC(=O)N1CCN(c2nc(=O)n(-c3c(C)ccnc3C(C)C)c3nc(-c4c(N)c(F)c(F)c(F)c4F)c(F)cc23)[C@@H](C)C1 [Compound 2, 4-((S)-4-acryloyl-2-methylpiperazin-1-yl)-7-(2-amino-3,4,5,6-tetrafluorophenyl)-6-fluoro-1-(2-isopropyl-4-methylpyridin-3-yl)pyrido[2,3-d]pyrimidin-2(1H)-one]	2.04	30.7	good pharmacokinetic properties	65.2	2.31	1150	1440	44.7
C=CC(=O)N1[C@H](C)CN(c2nc(=O)n(-c3c(C)ccnc3C(C)C)c3nc(-c4c(N)c(F)c(F)c(F)c4F)c(F)cc23)C[C@@H]1C [Compound 5, 4-((3S,5R)-4-acryloyl-3,5-dimethylpiperazin-1-yl)-7-(2-amino-3,4,5,6-tetrafluorophenyl)-6-fluoro-1-(2-isopropyl-4-methylpyridin-3-yl)pyrido[2,3-d]pyrimidin-2(1H)-one]	5.41	48.8	–	–	–	–	–	–
